Consider 20 molecules from ChEMBL document CHEMBL3297656, “New coumarin derivatives: design, synthesis and use as inhibitors of hMAO” (Bioorg Med Chem, 2014).

Usually pIC50 stands for −log10 of the IC50, conventionally taken in molar units.

pIC50: −log10 of the molar value.

In series [1] the target is T1, Amine oxidase [flavin-containing] A (Homo sapiens, UniProt P21397).
T1 sequence (P21397 whole entry): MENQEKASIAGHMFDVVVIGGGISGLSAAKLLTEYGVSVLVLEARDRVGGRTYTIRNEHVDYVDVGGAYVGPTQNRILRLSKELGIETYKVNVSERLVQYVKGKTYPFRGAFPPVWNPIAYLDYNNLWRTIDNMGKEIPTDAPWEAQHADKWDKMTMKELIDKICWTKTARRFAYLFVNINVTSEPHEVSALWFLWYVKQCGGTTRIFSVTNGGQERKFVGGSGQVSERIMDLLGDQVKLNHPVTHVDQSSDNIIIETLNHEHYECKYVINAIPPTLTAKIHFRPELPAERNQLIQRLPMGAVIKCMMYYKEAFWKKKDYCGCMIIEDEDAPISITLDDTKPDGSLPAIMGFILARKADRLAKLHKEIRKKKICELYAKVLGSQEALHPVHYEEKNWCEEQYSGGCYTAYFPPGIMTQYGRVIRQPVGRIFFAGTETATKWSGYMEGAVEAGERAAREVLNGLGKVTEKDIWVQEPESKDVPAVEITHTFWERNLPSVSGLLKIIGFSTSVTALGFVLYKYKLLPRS
The series can be described thus: Inhibition of human recombinant MAO-A assessed as H2O2 production using p-tyramine substrate at 60 uM by fluorimetric method.

In series [2] the target is T2, Amine oxidase [flavin-containing] B (Homo sapiens, UniProt P27338).
T2 sequence (P27338 whole entry): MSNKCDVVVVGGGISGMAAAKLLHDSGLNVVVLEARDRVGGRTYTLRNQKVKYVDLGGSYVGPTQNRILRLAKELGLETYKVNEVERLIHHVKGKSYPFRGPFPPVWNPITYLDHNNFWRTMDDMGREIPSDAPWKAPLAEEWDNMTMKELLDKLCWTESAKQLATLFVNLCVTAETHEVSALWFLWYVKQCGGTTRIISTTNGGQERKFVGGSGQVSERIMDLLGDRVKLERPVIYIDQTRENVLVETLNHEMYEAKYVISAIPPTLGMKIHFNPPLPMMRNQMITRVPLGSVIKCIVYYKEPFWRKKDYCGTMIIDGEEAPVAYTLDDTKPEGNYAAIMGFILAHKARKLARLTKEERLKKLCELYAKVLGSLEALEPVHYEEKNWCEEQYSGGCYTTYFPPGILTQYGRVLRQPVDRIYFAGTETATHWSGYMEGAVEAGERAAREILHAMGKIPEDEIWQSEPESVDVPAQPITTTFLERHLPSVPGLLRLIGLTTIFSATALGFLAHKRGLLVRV
The series can be described thus: Inhibition of human recombinant MAO-B assessed as H2O2 production using p-tyramine substrate at 60 uM by fluorimetric method.

Series [3] addresses T2, Amine oxidase [flavin-containing] B. The series can be described thus: Inhibition of human recombinant MAO-B assessed as H2O2 production using p-tyramine substrate by fluorimetric method.
The species entered for the next series is Homo sapiens. The series can be described thus: Selectivity index, ratio of IC50 for human recombinant MAO-A to IC50 for human recombinant MAO-B.
For series [4], the target named is T1, Amine oxidase [flavin-containing] A. The series can be described thus: Inhibition of human recombinant MAO-A assessed as H2O2 production using p-tyramine substrate by fluorimetric method.

Regarding `CCCCSC(=O)c1cc2cc(Br)c(Br)cc2oc1=O`, the “inhibition (INH)” value in series [1] and in series [2] was “Not Active” each time.

As for `O=C(Sc1ccc(Br)cc1)c1cc2cc(Br)c(Br)cc2oc1=O`, in series [3], the negative-log IC50 (pIC50) was 4.60. The “inhibition (INH)” value in series [1] is recorded as “Not Active”. The Ratio IC50 in the series listed under Homo sapiens turned out to be 2.4.

Regarding `CC(C)(C)NC(=O)c1cc2cc([N+](=O)[O-])ccc2oc1=O`, the “inhibition (INH)” value in series [1] and in series [2] was “Not Active” in each case.

As to `O=C(SCc1ccco1)c1cc2cc(Br)c(Br)cc2oc1=O`, in series [3], the pIC50 was 5.25. Moreover, the “inhibition (INH)” value in series [1] is “Not Active”. In the series filed under Homo sapiens, the Ratio IC50 was determined as 10.6.

As to `CC(C)NC(=O)c1cc2ccccc2oc1=O`, in series [4], the negative logarithm of the IC50 (pIC50) was 4.45.

In the case of `O=C(Sc1ccc(Br)cc1)c1cc2cc([N+](=O)[O-])ccc2oc1=O`, in series [3], the pIC50 was 4.68. Further, in series [1], the “inhibition (INH)” value is listed as “Not Active”. Also, in the series listed under Homo sapiens, the Ratio IC50 stood at 2.6.

Take `CC(C)NC(=O)c1cc2cc([N+](=O)[O-])ccc2oc1=O`: the “inhibition (INH)” value in series [1] and in series [2] was “Not Active” throughout.

Take `CC(C)(C)NC(=O)c1cc2ccccc2oc1=O`: the negative-log IC50 (pIC50) was 4.39 in series [4] and 5.10 in series [3]. The Ratio IC50 in the series filed under Homo sapiens is 5.1.

Turning to `CC(C)NC(=O)c1cc2cc(Br)cc(Br)c2oc1=O`, the pIC50 is 4.64 in series [4] and 4.99 in series [3]. Also, the Ratio IC50 in the series filed under Homo sapiens is 2.2.

With `CCCCSC(=O)c1cc2cc([N+](=O)[O-])ccc2oc1=O`, the “inhibition (INH)” value in series [1] and in series [2] was “Not Active” throughout.

Regarding `O=C(Sc1ccc(Br)cc1)c1cc2cc(C(F)(F)F)ccc2oc1=O`, the pIC50 in series [3] was 4.82. In addition, the “inhibition (INH)” value in series [1] was “Not Active”. Further, in the series filed under Homo sapiens, the Ratio IC50 was found to be 3.9.

Turning to `O=C(Sc1ncccn1)c1cc2ccccc2oc1=O`, in series [3], the negative-log IC50 (pIC50) is 5.11. For the same molecule, in series [1], the “inhibition (INH)” value was “Not Active”. Moreover, the Ratio IC50 in the series filed under Homo sapiens is 7.8.

For the molecule `O=C(Sc1ccc(Br)cc1)c1cc2ccccc2oc1=O`, the pIC50 is 4.64 in series [4] and 5.19 in series [3]. Also, the Ratio IC50 in the series filed under Homo sapiens was 3.5.

With `CCCCCCN(CCCCCC)C(=O)c1cc2cc(Br)cc(Br)c2oc1=O`, the pIC50 in series [4] was 5.00; in series [3], 5.13. The Ratio IC50 in the series filed under Homo sapiens stood at 1.4.

With `CCC(C)NC(=O)c1cc2cc([N+](=O)[O-])ccc2oc1=O` (stereo not drawn), the negative-log IC50 (pIC50) in series [3] was 4.76. The “inhibition (INH)” value in series [1] is “Not Active”. The Ratio IC50 in the series listed under Homo sapiens was determined as 3.4.

Regarding `CCCCCCN(CCCCCC)C(=O)c1cc2cc([N+](=O)[O-])ccc2oc1=O`, the “inhibition (INH)” value in series [1] and in series [2] was “Not Active” throughout.

In the case of `O=C(SCc1ccco1)c1cc2ccccc2oc1=O`, the pIC50 in series [4] was 4.40; in series [3], 6.68. The Ratio IC50 in the series filed under Homo sapiens is 189.

For the molecule `CCCCSC(=O)c1cc2ccccc2oc1=O`, the negative logarithm of the IC50 (pIC50) in series [3] was 4.80. The “inhibition (INH)” value in series [1] was “Not Active”. Further, the Ratio IC50 in the series listed under Homo sapiens was determined as 3.8.

With `O=C(SCc1ccco1)c1cc2cc([N+](=O)[O-])ccc2oc1=O`, the negative logarithm of the IC50 (pIC50) is 4.32 in series [4] and 4.88 in series [3]. Further, the Ratio IC50 in the series listed under Homo sapiens is 2.9.

On to `CCC(C)NC(=O)c1cc2cc(Br)cc(Br)c2oc1=O` (stereo not drawn), for which the negative-log IC50 (pIC50) in series [4] was 4.37; in series [3] it was 4.34. Besides, in the series listed under Homo sapiens, the Ratio IC50 turned out to be 0.9.
